# From ChEMBL document CHEMBL6182902, “Design, synthesis, and discovery of cinnamoyl amide derivatives as potent NagZ inhibitors with antibacterial activity” (Eur J Med Chem, 2025)
# Activity calls are given as the source filed them. No cut-off for these calls is given here.
# Assays:
# Escherichia coli [1] = assay: Inhibition of recombinant N-terminal His-tagged Escherichia coli BL21 NagZ extracted from Escherichia coli BL21 using pNP-GlcNAc as substrate at 100 uM by absorbance based assay relative to control
# Pseudomonas aeruginosa [2] = assay: Synergistic antibacterial activity against Pseudomonas aeruginosa ATCC 27853 infected in female KM mouse assessed as wound healing rate in skin at 200 ug/ml applied topically measured after 3 days in presence of ceftazidime (reference value: 36.2 %); type: functional; details: dose 200 µg/ml; route top; time 3 day
# Pseudomonas aeruginosa [3] = assay: Synergistic antibacterial activity against Pseudomonas aeruginosa ATCC 27853 infected in female KM mouse assessed as increase in wound contraction in skin at 200 ug/ml applied topically measured after 3 days in presence of ceftazidime; type: functional, organism-based; details: dose 200.0 µg/ml, route top, time 3.0 day
# Pseudomonas aeruginosa [4] = assay: Synergistic antibacterial activity against Pseudomonas aeruginosa ATCC 27853 assessed as fractional inhibitory concentration index incubated for 18 hrs in presence of ceftazidime by two-dimensional microdilution checkerboard assay; type: functional
# Pseudomonas aeruginosa [5] = assay: Synergistic antibacterial activity against Pseudomonas aeruginosa ATCC 27853 assessed as fractional inhibitory concentration index incubated for 18 hrs in presence of imipenem by two-dimensional microdilution checkerboard assay; type: functional
# [6] = Binding affinity to CM5 chip-immobilized recombinant N-terminal His-tagged Escherichia coli BL21 NagZ extracted from Escherichia coli BL21 assessed as equilibrium dissociation constant by SPR analysis
# Escherichia coli [7] = assay: Binding affinity to CM5 chip-immobilized recombinant N-terminal His-tagged Escherichia coli BL21 NagZ extracted from Escherichia coli BL21 assessed as relative response by SPR analysis
# Pseudomonas aeruginosa [8] = assay: Synergistic antibacterial activity against Pseudomonas aeruginosa ATCC 27853 infected in female KM mouse assessed as wound healing rate in skin at 200 ug/ml applied topically measured after 3 days in presence of imipenem (reference value: 36.2 %); type: functional; details: dose 200 µg/ml; route top; time 3 day
# [9] = Inhibition of recombinant N-terminal His-tagged Escherichia coli BL21 NagZ extracted from Escherichia coli BL21 using pNP-GlcNAc as substrate by absorbance based assay
# Pseudomonas aeruginosa [10] = assay: Synergistic antibacterial activity against Pseudomonas aeruginosa ATCC 27853 assessed as fold reduction in ceftazidime MIC incubated for 18 hrs by two-dimensional microdilution checkerboard assay; type: functional
# Pseudomonas aeruginosa [11] = assay: Synergistic antibacterial activity against Pseudomonas aeruginosa ATCC 27853 infected in female KM mouse assessed as epithelial tissue proliferation in skin at 200 ug/ml applied topically in presence of imipenem measured after 3 days; type: functional, organism-based; details: dose 200.0 µg/ml, route top, time 3.0 day
# [12] = Inhibition of recombinant N-terminal His-tagged Escherichia coli BL21 NagZ extracted from Escherichia coli BL21 using different concentrations of substrate pNP-GlcNAc by 4-nitrophenolate ion release based spectrophotometric analysis
# Pseudomonas aeruginosa [13] = assay: Synergistic antibacterial activity against Pseudomonas aeruginosa ATCC 27853 infected in female KM mouse assessed as wound healing rate in skin at 200 ug/ml applied topically measured after 10 days in presence of ceftazidime relative to control; type: functional; details: dose 200 µg/ml; route top; time 10 day
# Pseudomonas aeruginosa [14] = assay: Synergistic antibacterial activity against Pseudomonas aeruginosa ATCC 27853 infected in female KM mouse assessed as wound healing rate in skin at 200 ug/ml applied topically measured after 10 days in presence of imipenem relative to control; type: functional; details: dose 200 µg/ml; route top; time 10 day
# Pseudomonas aeruginosa [15] = assay: Synergistic antibacterial activity against Pseudomonas aeruginosa ATCC 27853 infected in female KM mouse assessed as exudate formation on wound surface at 200 ug/ml applied topically in presence of imipenem measured after 3 days; type: functional, organism-based; details: dose 200.0 µg/ml, route top, time 3.0 day
# Pseudomonas aeruginosa [16] = assay: Synergistic antibacterial activity against Pseudomonas aeruginosa ATCC 27853 assessed as fold reduction in imipenem MIC incubated for 18 hrs by two-dimensional microdilution checkerboard assay; type: functional
smiles,measurement,setting,value
O=C(/C=C/c1ccc(Cl)c(Cl)c1)N[C@@H](Cc1ccc(I)cc1)C(=O)O,inhibition,Escherichia coli [1],88%
same,Activity,Pseudomonas aeruginosa [2],73.2%
same,Activity,Pseudomonas aeruginosa [3],Active; Activity Higher Than Imipenem And Compound-Ceftazidime Combination
same,fractional inhibitory concentration index (FICI),Pseudomonas aeruginosa [4],0.375
same,fractional inhibitory concentration index (FICI),Pseudomonas aeruginosa [5],0.375
same,Kd,[6],42.8 µM
same,RU,Escherichia coli [7],< 68
same,Activity,Pseudomonas aeruginosa [8],69.4%
same,IC50,[9],6.4 µM
same,fold change (FC),Pseudomonas aeruginosa [10],>4
same,Activity,Pseudomonas aeruginosa [11],Active
same,Ki,[12],3.3 µM
same,Activity,Pseudomonas aeruginosa [13],95.7%
same,Activity,Pseudomonas aeruginosa [14],93.9%
same,Activity,Pseudomonas aeruginosa [15],Active
same,fold change (FC),Pseudomonas aeruginosa [16],>4
